Test results from patent US20240423973A1, “COMPOUNDS, PHARMACEUTICAL COMPOSITIONS, AND METHODS FOR THE TREATMENT, PREVENTION, OR MANAGEMENT OF HYPERPROLIFERATIVE DISORDERS” (VINCERX PHARMA GMBH, priority 2021, published 2024).
pIC50: −log10 of the molar value. Where a name gives a salt, the structure may show the parent alone. *1 amine or outer side, *2 acyl side, *3 side chain or, on linkers, in order; H or OH if unused. Where a SMILES comes first, the peptide text is derived from it. [ ]: non-standard residue; d: D form. The star is where a group is joined. X1 = CCCNC(=O)Nc1cccc(S(=O)(=O)Nc2cccc([C@@H](CC(=O)O)NC(=O)Nc3ccc(N*)cc3)c2)c1; Camptothecin(7-Et) = CCc1c2c(nc3ccccc13)-c1cc3c(c(=O)n1C2)COC(=O)[C@@]3(CC)O*; CO = O=C([*:1])[*:2]; Sar = CNCC(=O)O

What was measured:
HT29 [1] = experiment: Cytotoxicity assay (Version 2), automated, AC50; type: cell-based, human; settings: HT29 cells, Version 2, activity concentration at -50%, 4 parameter Hill-fit
Procedure: (§1) Cultivation of cells was performed according to standard procedures with the media recommended by the provider. The cells, in a total volume of 100 μL, were seeded in a 96-well plate with a white bottom (#3610). After a 24 h incubation period at 37° C. and 5% CO2, the medium was exchanged by adding 90 μL fresh medium. The treatment started by adding the test compound in 10 μL of culture medium to the cells in triplicates. Concentrations ranging from 10^−5 M to 10^−13 M were chosen. Two identically treated sets of samples were prepared. One set was treated with the test compound alone, whereas to the second set the compound and 10 nM elastase was added followed by a 72 h incubation period at 37° C. and 5% CO2. The proliferation was detected using the MTT assay (ATCC). At the end of the incubation period the MTT reagent was added to all samples for 4h. Lysis of the cells followed by addition of the detergent was done overnight. The formed dye was detected at 570 nm. The proliferation of untreated but otherwise identically handled cells was define as the […].
(§2) The Cytotoxicity assay (Version 2) was performed as above described. Some changes were applied as the assays were performed in an automated fashion and the IC50 values determination was changed. Here the change in metabolic activity of the cells, in percent, was calculated by normalization of the measured values to the absorbance values of medium containing wells without cells (=−100% ) and the absorbance of the DMSO-treated cells (=0% ). AC50 values (activity concentration at -50% o) were determined by means of a 4 parameter Hill-fit using GeneData Screener software.

786-O [2] = experiment: Cytotoxicity assay (Version 2), automated, AC50; type: cell-based, human; settings: 786-O cells, Version 2, activity concentration at -50%, 4 parameter Hill-fit
Procedure: as §1, §2

NCI H292 [3] = experiment: Cytotoxicity assay (Version 2), automated, AC50; type: cell-based, human; settings: NCI H292 cells, Version 2, activity concentration at -50%, 4 parameter Hill-fit
Procedure: as §1, §2

SUM149 [4] = experiment: Cytotoxicity assay (Version 2), automated, AC50; type: cell-based; settings: SUM149 cells, Version 2, activity concentration at -50%, 4 parameter Hill-fit
Procedure: as §1, §2

[5] = Compound stability in buffer; type: physicochemical; settings: buffer pH 7.4, 4-hour assay
Procedure: (§3) Compound B1, Compound C2, and Compound C3 were evaluated for stability in plasma and/or buffer. Compound B1 was stable in rat plasma at 37° C. (FIG. 1 panel (a)) and in buffer at pH 7.4 (FIG. 1 panel (b)) for the duration of the 4-hour assay.
Method for measurement of stability in buffer: 0.15 mg of the test compound are solved in 0.1 ml dimethylsulfoxide and 0.4 ml acetonitrile. For complete dissolution the HPLC vial with the sample solution is shaken and sonicated. Then 1.0 ml of the respective buffer solution is added, and the sample is vortexed. The sample solution is analysed by HPLC to determine the amount of the test compound and up to two byproducts at a particular time over a period of 24 h at 37° C. to values result from a sample immediately taken after vortexing with buffer at RT. The peak areas (in percentage) are used for quantification.

SUM149 [6] = experiment: Cytotoxicity in vitro in the presence and absence of elastase (MTT assay); type: cell-based; settings: SUM149 cells, 72 h
Procedure: as §1

HT29 [7] = experiment: as above; type: cell-based, human; settings: HT29 cells, 72 h
Procedure: as §1

786-O [8] = experiment: as above; type: cell-based, human; settings: 786-O cells, 72 h
Procedure: as §1

NCI H292 [9] = experiment: as above; type: cell-based, human; settings: NCI H292 cells, 72 h
Procedure: as §1

[10] = Compound stability in rat plasma; type: in vitro ADME; settings: rat plasma at 37° C., 4-hour assay
Procedure: as §3
Method for measurement of stability in rat and human plasma: 1 mg of the test compound is dissolved in 0.5 ml acetonitrile/dimethylsulfoxide 1:1. For complete dissolution the HPLC vial is shaken and sonicated. While vortexing 20 μl of this solution are added to 1 ml 37° C. warm plasma. After 0.17, 0.5, 1, 1.5, 2 and 4 hours the enzymatic reaction is stopped by adding 100 μl of the compound plasma solution to a vial containing 300 μl acetonitrile/buffer pH3 (80:20) at RT. The mixture is centrifuged at 5000 rpm for 10 minutes. The supernatant is analyzed by HPLC to determine the amount of the test compound and up to two byproducts. To values result from a processed sample immediately taken after vortexing with plasma at RT. The peak areas (in percentage) are used for quantification. All data is given as percent area of the initial compound at to.

Row | Structure (SMILES) | AC50 (HT29 [1]; no elastase) [nM] | AC50 (HT29 [1]; with elastase) [nM] | AC50 (786-O [2]; no elastase) [nM] | AC50 (786-O [2]; with elastase) [nM] | AC50 (NCI H292 [3]; no elastase) [nM] | AC50 (NCI H292 [3]; with elastase) [nM] | AC50 (SUM149 [4]; no elastase) [nM] | AC50 (SUM149 [4]; with elastase) [nM] | stability in buffer at pH 7.4 [5] | pIC50 (SUM149 [6]; compound alone (no elastase)) | pIC50 (SUM149 [6]; with 10 nM elastase) | pIC50 (HT29 [7]; compound alone (no elastase)) | pIC50 (HT29 [7]; with 10 nM elastase) | pIC50 (786-O [8]; compound alone (no elastase)) | pIC50 (786-O [8]; with 10 nM elastase) | pIC50 (NCI H292 [9]; compound alone (no elastase)) | pIC50 (NCI H292 [9]; with 10 nM elastase) | stability in rat plasma [10]
1 | CCCNC(=O)Nc1cccc(S(=O)(=O)Nc2cccc([C@H](CC(=O)O)NC(=O)Nc3ccc(NC(=O)NCCOCCOCCOCCC(=O)NCCNC(=O)CC[C@H](NC(=O)CCCC(=O)NCCN(C)CCN(C)CCN(C)CC(=O)NCC(=O)N4CCC[C@H]4C(=O)N[C@H](C(=O)O[C@]4(CC)C(=O)OCc5c4cc4n(c5=O)Cc5c-4nc4ccccc4c5CC)C(C)C)C(=O)NCCNC(=O)CCOCCOCCOCCNC(=O)Nc4ccc(NC(=O)N[C@@H](CC(=O)O)c5cccc(NS(=O)(=O)c6cccc(NC(=O)NCCC)c6)c5)cc4)cc3)c2)c1 [Compound A12] | 110 to 1000 | 11 to 100 | ≤ 10 | ≤ 10 | 11 to 100 | ≤ 10 | ≤ 10 | ≤ 10 | – | – | – | – | – | – | – | – | – | –
2 | CCCNC(=O)Nc1cccc(S(=O)(=O)Nc2cccc([C@@H](CC(=O)O)NC(=O)Nc3ccc(NC(=O)N(C)CCN(C)CCN(C)CC(=O)N[C@@H](CC(N)=O)C(=O)N4CCC[C@H]4C(=O)N[C@H](C(=O)O[C@]4(CC)C(=O)OCc5c4cc4n(c5=O)Cc5c-4nc4ccccc4c5CC)C(C)C)cc3)c2)c1 [Compound B1, (4S)-4,11-diethyl-3,14-dioxo-3,4,12,14-tetrahydro-1H-pyrano[3′,4′:6,7]indolizino[1,2-b]quinolin-4-yl N-{2-[{2-[({4-[({(1R)-2-carboxy-1-[3-({3-[(propylcarbamoyl)amino]benzene-1-sulfonyl}amino)phenyl]ethyl}carbamoyl)amino]phenyl}carbamoyl)(methyl)amino]ethyl} (methyl)amino]ethyl}-N-methylglycyl-L-asparaginyl-L-prolyl-L-valinate] | – | – | – | – | – | – | – | – | stable | 7.00 to 8.00 | 10.00 to 11.00 | < 7.00 | 9.00 to 10.00 | 7.00 to 8.00 | 9.00 to 10.00 | 7.00 to 8.00 | 9.00 to 10.00 | stable
3 | CCCNC(=O)Nc1cccc(S(=O)(=O)Nc2cccc([C@@H](CC(=O)O)NC(=O)Nc3ccc(NC(=O)N(C)CC(=O)N(C)CC(=O)N(C)CC(=O)N(C)CC(=O)N[C@@H](CC(=O)O)C(=O)N4CCC[C@H]4C(=O)N[C@H](C(=O)O[C@]4(CC)C(=O)OCc5c4cc4n(c5=O)Cc5c-4nc4ccccc4c5CC)C(C)C)cc3)c2)c1 [Compound B6] ({X1-CO}-[Sar][Sar][Sar][Sar]DPV-{Camptothecin(7-Et)}) | > 1000 | 11 to 100 | 110 to 1000 | ≤ 10 | 110 to 1000 | ≤ 10 | 110 to 1000 | ≤ 10 | – | – | – | – | – | – | – | – | – | –
4 | CCCNC(=O)Nc1cccc(S(=O)(=O)Nc2cccc([C@@H](CC(=O)O)NC(=O)Nc3ccc(NC(=O)NCCOCCOCCOCCC(=O)N[C@@H](CC(=O)OCCC[N+](C)(C)C)C(=O)N4CCC[C@H]4C(=O)N[C@H](C(=O)O[C@]4(CC)C(=O)OCc5c4cc4n(c5=O)Cc5c-4nc4ccccc4c5CC)C(C)C)cc3)c2)c1 [Compound C5, trifluoroacetate] | > 1000 | 11 to 100 | 110 to 1000 | ≤ 10 | 110 to 1000 | ≤ 10 | 110 to 1000 | ≤ 10 | – | – | – | – | – | – | – | – | – | –
5 | CCCNC(=O)Nc1cccc(S(=O)(=O)Nc2cccc([C@@H](CC(=O)O)NC(=O)Nc3ccc(NC(=O)NCCOCCOCCOCCC(=O)N[C@@H](CC(=O)O)C(=O)N4CCC[C@H]4C(=O)N[C@@H](C)C(=O)O[C@]4(CC)C(=O)OCc5c4cc4n(c5=O)Cc5c-4nc4ccccc4c5CC)cc3)c2)c1 [Compound C10, disodium (4S)-4,11-diethyl-3,14-dioxo-3,4,12,14-tetrahydro-1H-pyrano[3′,4′:6,7]indolizino[1,2-b]quinolin-4-yl 1-[(2S)-2-(carboxylatomethyl)-17-{4-[({(1R)-2-carboxylato-1-[3-({3-[(propylcarbamoyl)amino]benzene-1-sulfonyl}amino)phenyl]ethyl}carbamoyl)amino]anilino}-4,17-dioxo-7,10,13-trioxa-3,16-diazaheptadecanan-1-oyl]-L-prolyl-L-alaninate] | 110 to 1000 | 11 to 100 | 11 to 100 | ≤ 10 | 11 to 100 | ≤ 10 | 11 to 100 | ≤ 10 | – | – | – | – | – | – | – | – | – | –
6 | CCCNC(=O)Nc1cccc(S(=O)(=O)Nc2cccc([C@@H](CC(=O)O)NC(=O)Nc3ccc(NC(=O)N(C)CC(=O)N(C)CC(=O)N(C)CC(=O)N(C)CC(=O)N(C)CC(=O)N(C)CC(=O)N(C)CC(=O)N(C)CC(=O)N[C@@H](CC(=O)O)C(=O)N4CCC[C@H]4C(=O)N[C@H](C(=O)O[C@]4(CC)C(=O)OCc5c4cc4n(c5=O)Cc5c-4nc4ccccc4c5CC)C(C)C)cc3)c2)c1 [Compound D3] ({X1-CO}-[Sar][Sar][Sar][Sar][Sar][Sar][Sar][Sar]DPV-{Camptothecin(7-Et)}) | 110 to 1000 | 11 to 100 | 110 to 1000 | ≤ 10 | 110 to 1000 | ≤ 10 | 110 to 1000 | ≤ 10 | – | – | – | – | – | – | – | – | – | –
7 | CCCNC(=O)Nc1cccc(S(=O)(=O)Nc2cccc([C@@H](CC(=O)O)NC(=O)Nc3ccc(NC(=O)NCCOCCOCCOCCC(=O)N[C@@H](CCCCNC(=O)CCCC(=O)N(C)CC(=O)N(C)CC(=O)N(C)CC(=O)N(C)CC(=O)N(C)CC(=O)N(C)CC(=O)N(C)CC(=O)N(C)CC(=O)O)C(=O)NCCOCCOCCOCCC(=O)N[C@@H](CC(=O)O)C(=O)N4CCC[C@H]4C(=O)N[C@H](C(=O)O[C@]4(CC)C(=O)OCc5c4cc4n(c5=O)Cc5c-4nc4ccccc4c5CC)C(C)C)cc3)c2)c1 [Compound E4] | 110 to 1000 | 11 to 100 | 110 to 1000 | ≤ 10 | 110 to 1000 | ≤ 10 | 110 to 1000 | ≤ 10 | – | – | – | – | – | – | – | – | – | –
